One block for each compound: values may come before it. Activity calls are given as the source filed them.
Assays:
[1] = viability loss in human Jurkat cells – cell-based, luminescence, cytotoxicity control for P. falciparum gametocyte viability project, dose response (AID 1117277); format: functional;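 note: potency reflects loss of cellular ATP meaning fewer viable cells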
[2] = viability inhibitors of stage V gametocytes – luminescence, dose response (AID 1117278); format: functional, cell-based;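 note: gametocytes exposed to compound for 24 hours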
[3] = target: T1, Oxysterols receptor LXR-beta (Homo sapiens, UniProt P55055); assay: LXR agonists, Gal4 luciferase reporter, dose response, counter-screen for ssDAF-12 agonist project, cell-based, luminescence, HEK293, S. stercoralis campaign (AID 720737); format: functional; conditions: read-out: IC50 (the source's name)
T1 sequence (P55055 whole entry): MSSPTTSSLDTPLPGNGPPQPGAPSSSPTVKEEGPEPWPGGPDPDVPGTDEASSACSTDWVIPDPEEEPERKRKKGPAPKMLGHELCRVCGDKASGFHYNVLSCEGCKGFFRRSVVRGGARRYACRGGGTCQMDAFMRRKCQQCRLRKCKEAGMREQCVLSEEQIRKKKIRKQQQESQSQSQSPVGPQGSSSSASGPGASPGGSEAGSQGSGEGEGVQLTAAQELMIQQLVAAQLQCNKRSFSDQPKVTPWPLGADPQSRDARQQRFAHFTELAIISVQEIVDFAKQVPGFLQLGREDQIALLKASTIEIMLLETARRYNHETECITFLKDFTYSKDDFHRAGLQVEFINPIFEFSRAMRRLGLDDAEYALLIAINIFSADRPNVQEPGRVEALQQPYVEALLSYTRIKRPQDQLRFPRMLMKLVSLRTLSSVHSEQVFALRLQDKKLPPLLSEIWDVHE

[4] = Luminescence-based cell-based high throughput dose response assay to identify activators of the DAF-12 from the parasite S. stercoralis (ssDAF-12).; format: functional
[5] = HEK-293T cell viability reduction – luminescence, B-cell screen hits, cytotoxicity control for BCR NF-kB inhibitor project, dose response (AID 489021); format: functional, cell-based;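 note: HEK-293T cells carrying an NF-kB luciferase reporter; cells exposed to compound for about 14 hours before viability readout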
[6] = HIV-1 Vif–A3G interaction blockers – biochemical, TR-FRET, GST-Vif 1-94, biotin-A3G peptide, dose response retest, primary screen (AID 1117319); format: functional;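 note: TR-FRET signal of purified GST-Vif binding a biotinylated A3G peptide; inhibitors lower the FRET signal by blocking Vif and A3G binding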
Protein Tat = Protein Tat (Human immunodeficiency virus type 1 group M subtype B (isolate HXB2)(HIV-1), UniProt P04608); format: functional;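 note: tat binding to TAR RNA read out by fluorescence polarization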
Sequence of Protein Tat (P04608 whole entry): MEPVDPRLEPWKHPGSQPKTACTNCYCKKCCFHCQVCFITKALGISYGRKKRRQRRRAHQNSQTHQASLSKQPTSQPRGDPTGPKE

[7] = target: Heat shock protein HSP 90-alpha (Homo sapiens, UniProt P07900); format: functional, organism-based
[8] = target: Neurotensin receptor type 1 (Homo sapiens, UniProt P30989); format: functional;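 note: Image-based confirmatory dose-response assay measuring agonist activity at NTR1; NTR1-expressing U2OS osteosarcoma cells imaged for beta-arrestin GFP spot formation; agonist potency where compounds increase beta-arrestin recruitment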
Sequence of Neurotensin receptor type 1 (P30989 whole entry): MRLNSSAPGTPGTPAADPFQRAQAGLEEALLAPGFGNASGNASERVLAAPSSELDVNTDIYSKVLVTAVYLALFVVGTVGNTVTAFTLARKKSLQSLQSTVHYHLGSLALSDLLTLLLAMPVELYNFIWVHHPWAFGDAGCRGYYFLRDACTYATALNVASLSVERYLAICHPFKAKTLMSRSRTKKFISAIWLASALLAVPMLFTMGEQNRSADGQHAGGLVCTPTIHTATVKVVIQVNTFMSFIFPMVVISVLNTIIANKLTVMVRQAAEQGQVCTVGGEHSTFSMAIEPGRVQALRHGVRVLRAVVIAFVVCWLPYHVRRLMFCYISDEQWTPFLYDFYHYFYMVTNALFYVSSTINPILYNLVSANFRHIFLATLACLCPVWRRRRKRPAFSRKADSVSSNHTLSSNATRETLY

[9] = viability loss of HMLE_sh_eGFP cells – cell-based, luminescence, counter-screen for HMLE_sh_ECad selective toxicity project, dose response (AID 463074); format: functional, Homo sapiens;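 note: HMLE human mammary epithelial cells expressing control shRNA against eGFP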
[10] = Luminescence Cell-Based Dose Retest to Confirm Inhibitors of Cancer Stem Cells. [Related pubchem assays (depositor defined):AID2717, AID2721]; format: functional; conditions: Homo sapiens
[11] = target: T2, Mannose-6-phosphate isomerase (Homo sapiens, UniProt P34949); assay: MPI enzyme activity inhibition – biochemical, fluorescence intensity, coupled assay, primary screen (AID 1209)
T2 sequence (P34949 whole entry): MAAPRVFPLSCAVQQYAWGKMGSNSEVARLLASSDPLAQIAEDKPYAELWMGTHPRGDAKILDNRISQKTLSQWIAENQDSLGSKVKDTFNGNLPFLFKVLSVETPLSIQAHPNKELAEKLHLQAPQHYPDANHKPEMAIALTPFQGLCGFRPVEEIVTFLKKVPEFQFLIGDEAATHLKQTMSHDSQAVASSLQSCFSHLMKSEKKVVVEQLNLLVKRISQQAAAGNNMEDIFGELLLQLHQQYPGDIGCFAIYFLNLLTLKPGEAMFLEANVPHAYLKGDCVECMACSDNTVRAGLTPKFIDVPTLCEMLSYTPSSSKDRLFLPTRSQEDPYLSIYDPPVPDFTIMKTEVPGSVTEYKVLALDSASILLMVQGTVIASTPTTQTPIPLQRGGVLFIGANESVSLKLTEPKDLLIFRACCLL

INS1 = assay: INS-1E survival protection against cytokine death – cell-based, luminescence, retest, dose response (AID 449756); format: functional; conditions: Rattus norvegicus;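 note: cell death triggered by IL-1 beta plus TNF-alpha plus IFN-gamma mixture; protective hits raise ATP signal compared with cytokine alone wells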
[12] = target: Lysosomal acid glucosylceramidase (Homo sapiens, UniProt P04062); assay: Dose response cell-based high throughput screening assay to identify enhancers of beta-glucosidase activity. [Related pubchem assays: 784 ]; format: functional
Sequence of Lysosomal acid glucosylceramidase (P04062 whole entry): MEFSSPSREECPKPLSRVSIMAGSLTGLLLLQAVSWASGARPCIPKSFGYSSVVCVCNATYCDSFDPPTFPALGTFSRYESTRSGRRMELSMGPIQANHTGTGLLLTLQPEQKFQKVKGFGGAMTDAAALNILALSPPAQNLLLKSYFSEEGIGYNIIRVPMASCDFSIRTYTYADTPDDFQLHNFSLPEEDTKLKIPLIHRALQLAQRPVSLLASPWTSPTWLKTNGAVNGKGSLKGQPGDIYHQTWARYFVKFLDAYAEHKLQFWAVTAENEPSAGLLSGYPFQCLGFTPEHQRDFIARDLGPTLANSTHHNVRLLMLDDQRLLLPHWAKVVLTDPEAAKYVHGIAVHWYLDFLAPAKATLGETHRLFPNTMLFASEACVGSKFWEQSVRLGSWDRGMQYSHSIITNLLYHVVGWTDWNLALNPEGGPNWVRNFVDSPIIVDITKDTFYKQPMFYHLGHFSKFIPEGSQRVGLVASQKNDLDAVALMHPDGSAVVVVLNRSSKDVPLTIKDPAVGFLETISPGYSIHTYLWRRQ

[13] = Luminescence Cell-Based Dose Confirmation HTS to Identify Inhibitors of Polyadenylation.; format: functional
Estrogen receptor beta [14] = target: T3, Estrogen receptor beta (Homo sapiens, UniProt Q92731);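 note: recombinant ER-beta bound to coactivator SRC1 peptide in presence of estradiol agonist; inhibitors block coactivator peptide binding and lower the FRET signal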
T3 sequence (Q92731 whole entry): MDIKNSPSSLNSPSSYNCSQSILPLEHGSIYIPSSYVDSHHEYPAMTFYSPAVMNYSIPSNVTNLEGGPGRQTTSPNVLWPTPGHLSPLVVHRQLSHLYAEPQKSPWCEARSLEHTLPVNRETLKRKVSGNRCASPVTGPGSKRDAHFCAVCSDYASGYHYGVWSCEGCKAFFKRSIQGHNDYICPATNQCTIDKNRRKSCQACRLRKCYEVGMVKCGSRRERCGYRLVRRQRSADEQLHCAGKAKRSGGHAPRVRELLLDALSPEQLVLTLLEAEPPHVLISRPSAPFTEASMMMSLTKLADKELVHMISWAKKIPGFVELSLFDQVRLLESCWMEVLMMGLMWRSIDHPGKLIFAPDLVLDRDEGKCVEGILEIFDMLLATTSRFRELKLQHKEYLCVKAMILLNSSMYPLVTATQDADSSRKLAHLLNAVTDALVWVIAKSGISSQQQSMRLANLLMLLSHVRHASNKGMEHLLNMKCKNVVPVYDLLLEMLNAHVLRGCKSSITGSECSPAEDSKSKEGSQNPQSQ

Estrogen receptor beta [15] = target: T3, Estrogen receptor beta; assay: blockers of SRC-3 recruitment to ERβ – biochemical, ELISA, streptavidin-HRP readout, orthogonal assay, confirmation (AID 1060)
[16] = target: DNA dC->dU-editing enzyme APOBEC-3A (Homo sapiens, UniProt P31941); assay: Dose Response confirmation of small molecule APOBEC3A DNA Deaminase Inhibitors via a fluorescence-based single-stranded DNA deaminase assay. [Related pubchem assays (depositor defined):AID493011, AID493024]; format: functional
Sequence of DNA dC->dU-editing enzyme APOBEC-3A (P31941 whole entry): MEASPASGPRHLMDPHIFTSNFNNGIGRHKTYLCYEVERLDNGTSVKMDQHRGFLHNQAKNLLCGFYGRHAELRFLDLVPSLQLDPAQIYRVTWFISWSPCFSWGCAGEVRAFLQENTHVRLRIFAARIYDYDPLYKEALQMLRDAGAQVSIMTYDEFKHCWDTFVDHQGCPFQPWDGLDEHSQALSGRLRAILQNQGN

[17] = target: DNA dC->dU-editing enzyme APOBEC-3G (Homo sapiens, UniProt Q9HC16); format: functional;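 note: Dose-response counterscreen measuring inhibition of APOBEC3G DNA deaminase activity, run while confirming APOBEC3A inhibitors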
Sequence of DNA dC->dU-editing enzyme APOBEC-3G (Q9HC16 whole entry): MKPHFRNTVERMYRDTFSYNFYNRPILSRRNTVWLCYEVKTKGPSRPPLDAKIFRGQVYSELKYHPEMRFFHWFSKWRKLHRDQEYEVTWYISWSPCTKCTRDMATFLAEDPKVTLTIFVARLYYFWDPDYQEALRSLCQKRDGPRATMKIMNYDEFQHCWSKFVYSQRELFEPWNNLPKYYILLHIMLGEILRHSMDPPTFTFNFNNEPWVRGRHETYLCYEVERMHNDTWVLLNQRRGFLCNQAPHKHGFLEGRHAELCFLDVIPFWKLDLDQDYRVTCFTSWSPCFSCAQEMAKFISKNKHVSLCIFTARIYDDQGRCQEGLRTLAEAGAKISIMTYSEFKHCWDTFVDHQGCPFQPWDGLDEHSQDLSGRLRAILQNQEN

[18] = viability loss in Vero cells – cytotoxicity control for Vif-APOBEC3G degradation inhibitor project, dose response (AID 1117358); format: functional; conditions: Vero
[19] = target: E3 ubiquitin-protein ligase Mdm2 (Homo sapiens, UniProt Q00987); assay: MDM2-luc reporter signal enhancers, multi-concentration potency testing, MDM2 ubiquitin-protein ligase inhibitor program, whole-cell format, luminescence detection, 384-well microplate (AID 1394); format: functional;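 note: MDM2 E3 inhibitors raise luminescence so EC50 is for signal enhancement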
Sequence of E3 ubiquitin-protein ligase Mdm2 (Q00987 whole entry): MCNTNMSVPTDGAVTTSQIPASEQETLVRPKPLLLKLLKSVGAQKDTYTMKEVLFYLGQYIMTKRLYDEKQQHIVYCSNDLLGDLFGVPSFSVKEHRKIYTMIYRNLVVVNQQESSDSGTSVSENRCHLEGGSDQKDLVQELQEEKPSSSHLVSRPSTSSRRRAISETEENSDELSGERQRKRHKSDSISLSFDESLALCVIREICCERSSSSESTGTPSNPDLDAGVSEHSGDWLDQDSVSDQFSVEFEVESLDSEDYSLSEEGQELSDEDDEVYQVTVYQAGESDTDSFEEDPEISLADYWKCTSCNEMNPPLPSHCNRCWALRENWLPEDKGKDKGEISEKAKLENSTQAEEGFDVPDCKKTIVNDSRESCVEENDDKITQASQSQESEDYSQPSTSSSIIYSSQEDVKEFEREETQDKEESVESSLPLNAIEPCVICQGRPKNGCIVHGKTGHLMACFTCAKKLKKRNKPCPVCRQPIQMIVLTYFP

Protein Rev = Protein Rev (Human immunodeficiency virus type 1 group M subtype B (isolate HXB2)(HIV-1), UniProt P04618); assay: blockers of HIV Rev/RRE RNA complex – biochemical, fluorescence polarization, HIV-1, dose response (AID 434976); design: species or system Human immunodeficiency virus 1
Sequence of Protein Rev (P04618 whole entry): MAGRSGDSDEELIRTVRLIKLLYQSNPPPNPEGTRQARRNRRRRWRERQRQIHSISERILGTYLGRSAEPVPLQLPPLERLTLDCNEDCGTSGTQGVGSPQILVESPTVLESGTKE

[20] = target: Female germline-specific tumor suppressor gld-1 (Caenorhabditis elegans, UniProt Q17339); assay: blockers of GLD-1/TGE RNA complex formation – biochemical, fluorescence polarization, C. elegans, dose response (AID 2802);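 note: fluorescence polarization of labeled TGE RNA bound by purified gld-1 protein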
Sequence of Female germline-specific tumor suppressor gld-1 (Q17339 whole entry): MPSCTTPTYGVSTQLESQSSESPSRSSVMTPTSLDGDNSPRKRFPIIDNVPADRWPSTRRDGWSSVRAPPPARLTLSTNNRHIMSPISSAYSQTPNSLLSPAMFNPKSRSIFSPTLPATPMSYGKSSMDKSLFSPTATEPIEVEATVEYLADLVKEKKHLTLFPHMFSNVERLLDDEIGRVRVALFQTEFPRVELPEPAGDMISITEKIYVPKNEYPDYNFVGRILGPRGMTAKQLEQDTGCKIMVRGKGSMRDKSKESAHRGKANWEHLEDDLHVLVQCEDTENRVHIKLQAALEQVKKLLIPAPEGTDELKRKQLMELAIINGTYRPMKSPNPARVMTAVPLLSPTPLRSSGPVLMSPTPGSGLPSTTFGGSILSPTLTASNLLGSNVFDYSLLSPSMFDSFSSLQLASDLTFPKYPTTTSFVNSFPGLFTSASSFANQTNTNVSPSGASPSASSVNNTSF

[21] = target: Polyadenylate-binding protein 1 (Homo sapiens, UniProt P11940); assay: blockers of PABP interaction with poly(A) – biochemical, fluorescence polarization, […] (AID 2014)
Sequence of Polyadenylate-binding protein 1 (P11940 whole entry): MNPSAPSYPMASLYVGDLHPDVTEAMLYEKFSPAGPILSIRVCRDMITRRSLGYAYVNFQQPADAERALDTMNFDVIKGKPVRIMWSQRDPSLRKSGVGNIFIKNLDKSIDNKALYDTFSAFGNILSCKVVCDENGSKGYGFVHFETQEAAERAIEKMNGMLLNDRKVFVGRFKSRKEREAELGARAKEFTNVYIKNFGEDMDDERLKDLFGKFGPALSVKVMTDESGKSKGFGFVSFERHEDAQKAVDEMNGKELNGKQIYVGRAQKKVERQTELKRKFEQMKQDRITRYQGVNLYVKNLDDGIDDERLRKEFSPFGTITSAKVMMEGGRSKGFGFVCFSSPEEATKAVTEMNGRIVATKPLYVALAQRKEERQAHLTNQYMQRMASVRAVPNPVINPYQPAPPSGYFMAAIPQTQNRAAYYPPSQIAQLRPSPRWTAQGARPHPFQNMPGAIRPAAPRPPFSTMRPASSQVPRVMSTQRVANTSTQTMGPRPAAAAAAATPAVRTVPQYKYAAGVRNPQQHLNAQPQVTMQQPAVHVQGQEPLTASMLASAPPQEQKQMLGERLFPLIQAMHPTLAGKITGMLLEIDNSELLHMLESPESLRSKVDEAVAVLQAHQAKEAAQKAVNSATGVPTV

[22] = target: Eukaryotic translation initiation factor 4H (Homo sapiens, UniProt Q15056); assay: eIF4H binding inhibition – biochemical, uHTS, fluorescence polarization, translation initiation inhibitor project, primary screen (AID 2012)
[23] = target: T4, Alkaline phosphatase, tissue-nonspecific isozyme (Homo sapiens, UniProt P05186)
T4 sequence (P05186 whole entry): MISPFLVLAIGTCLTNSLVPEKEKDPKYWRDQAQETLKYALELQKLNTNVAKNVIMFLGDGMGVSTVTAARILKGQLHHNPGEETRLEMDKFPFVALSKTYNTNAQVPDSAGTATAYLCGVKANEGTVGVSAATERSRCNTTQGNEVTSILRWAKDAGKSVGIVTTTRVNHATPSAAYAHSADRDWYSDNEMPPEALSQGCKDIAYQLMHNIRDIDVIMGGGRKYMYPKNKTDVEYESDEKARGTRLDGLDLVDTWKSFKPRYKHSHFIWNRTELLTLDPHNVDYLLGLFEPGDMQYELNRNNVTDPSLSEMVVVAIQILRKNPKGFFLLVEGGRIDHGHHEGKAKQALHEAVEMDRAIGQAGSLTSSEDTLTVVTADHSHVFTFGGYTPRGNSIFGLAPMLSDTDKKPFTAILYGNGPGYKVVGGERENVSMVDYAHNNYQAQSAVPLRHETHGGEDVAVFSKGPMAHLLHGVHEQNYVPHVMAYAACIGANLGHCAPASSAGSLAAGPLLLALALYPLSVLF

[24] = target: T2, Mannose-6-phosphate isomerase; assay: MPI inhibition at elevated mannose 6-phosphate – biochemical, fluorescence intensity, high mannose 6-phosphate, primary screen (AID 1220)
cells = conditions: HEK293
[25] = rise of 2N DNA cells, HeLa – IC50, dose response (AID 1117349); format: functional, cell-based
[26] = rise of 4N DNA cells, HeLa – IC50, dose response (AID 1117351); format: functional, cell-based

Structure (SMILES): CC1CCCN(CC(O)CN)C1 (stereo unspecified)
IC50 [1]: > 83.3 µM (inactive)
IC50 [2]: > 109 µM (inactive)

Structure (SMILES): Cc1c(C(=O)O/N=C(\N)c2ccccn2)cccc1[N+](=O)[O-]
EC50 [3]: > 67.6 µM (inactive)
IC50 [4]: > 67.6 µM (inactive)

Structure (SMILES): O=C(CCl)Nc1ccccc1Sc1ccccc1
IC50 [5]: > 80 µM (inactive)

IC50 [6]: > 100 µM (active)
Structure (SMILES): CCC(=O)N1CCc2cc(S(=O)(=O)NCCC(=O)NC3CCCc4ccccc43)ccc21 (stereo unspecified)

IC50 (Protein Tat): > 100 µM (active)
Structure (SMILES): CCn1c(SCC(=O)Nc2cc(C)on2)nnc1-c1cccnc1

Structure (SMILES): CCOC(=O)[C@H]1[C@H]2COc3cc(OC)ccc3[C@@H]2N2C(=O)c3ccc(C)cc3NC(=O)[C@@]12C
IC50 [1]: > 83.3 µM (inactive)
IC50 [2]: > 109 µM (inactive)

Structure (SMILES): O=C(/C=C/c1ccc(Cl)c([N+](=O)[O-])c1)c1cccnc1
AC50 [7]: 1.31 µM (active)
EC50 [8]: > 40 µM (inactive)
AC50 [9]: 56.4 µM (active)
AC50 [10]: 4.16 µM (active)

Structure (SMILES): COc1ccc(C(=O)NC(=S)NNC(=O)c2cnccn2)cc1OC
IC50 [11]: > 50 µM (not active)
AC50 (INS1): 1.03 µM (active)

EC50 [12]: > 50 µM (not active)
Structure (SMILES): CC(=O)c1ccc(NC(=O)CSCCO)cc1

Structure (SMILES): CCOc1ccc(CCNC(=O)CN2C(=O)CCSc3ccccc32)cc1OCC
EC50 [13]: > 120 µM (not active)

IC50 (Estrogen receptor beta [14]): 13.6 µM (active)
IC50 (Estrogen receptor beta [15]): > 50 µM (not active)
Structure (SMILES): O=C1NCCCC2c3cc(O)c4ccccc4c3OC12N1CCCCC1 (stereo unspecified)

Structure (SMILES): CCN(CC(=O)Nc1c(F)cccc1F)C(=O)c1cccc(-n2cccc2)c1
IC50 [16]: 15.9 µM (active)
IC50 [17]: 34.8 µM (active)
IC50 (Protein Tat): > 100 µM (active)

Structure (SMILES): Cc1ccc(S(=O)(=O)N(C)CC(O)Cn2c3ccccc3c3ccccc32)cc1 (stereo unspecified)
CC50 [18]: > 40 µM (active)

Structure (SMILES): Cc1cnc(NC(=O)Nc2ccc(Cl)cc2)s1
IC50 [5]: > 80 µM (inactive)

Structure (SMILES): COc1cccc(-c2nc3ccccc3s2)c1O
EC50 [3]: > 67.6 µM (inactive)
IC50 [4]: > 67.6 µM (inactive)

Structure (SMILES): COc1ccc(CC(=O)OCn2nnc3ccccc3c2=O)cc1
CC50 [18]: > 40 µM (active)

IC50 (Estrogen receptor beta [14]): 30.7 µM (not active)
IC50 (Estrogen receptor beta [15]): 0.0586 µM (not active)
Structure (SMILES): CCc1nc2oc3cc(OC)ccc3c(=O)c2c(=O)n1Cc1ccco1

IC50 [6]: > 100 µM (active)
EC50 [19]: 7.82 µM (active)
Structure (SMILES): Nc1cccc2c1C(=O)N(C(=O)/C=C/c1cccc(Br)c1)C2=O

Structure (SMILES): Cc1ccc(-c2nc(Nc3cccc(O)c3)c3ccccc3n2)cc1
EC50 [8]: 30.6 µM (inactive)
AC50 [10]: 5.05 µM (active)

Structure (SMILES): CC(CCC(C)C(C)(C)C)[C@@H]1CC[C@H]2C3C[C@H](OS(O)(=S)=S)[C@H]4C[C@H](OS(O)(=S)=S)[C@@H](OS(O)(=S)=S)C[C@]4(C)[C@H]3CC[C@]12C.Nc1ncc[nH]1 (stereo partly specified)
IC50 (Protein Rev): 8.34 µM (active)
IC50 [20]: 3.66 µM (active)

Structure (SMILES): COc1ccc2c(c1)c1nnc(SC)nc1n2C
EC50 [13]: > 120 µM (not active)

Structure (SMILES): CCN1C(NCc2cc(OC)c(OC)c(OC)c2)=N[C@@H](c2ccccc2)[C@H](C(=O)OC)[C@H]1C
IC50 [21]: 11.9 µM (active)
IC50 [22]: > 100 µM (inactive)

EC50 [23]: 66.5 µM (not active)
Structure (SMILES): CC(Oc1ccccc1)C(=O)NNC(=O)c1ccccn1 (stereo unspecified)

EC50 [12]: > 50 µM (not active)
Structure (SMILES): O=C(NCC(=O)N(c1cccnc1)C(C(=O)NC1CCCC1)c1ccco1)c1cccs1 (stereo unspecified)

IC50 [24]: > 50 µM (not active)
IC50 [11]: > 50 µM (not active)
Structure (SMILES): Cc1ccc([N+](=O)[O-])cc1/N=C/C1=C(O)c2ccccc2CC1

Structure (SMILES): c1ccc2c(c1)ncn2CCOc1ccc2c(c1)CCC2
AC50 (cells): 36.7 µM (active)

IC50 [24]: > 50 µM (not active)
Structure (SMILES): N#Cc1c(N2CCN(c3ccc(F)cc3)CC2)nc(N)c2c(N)nc3c(c12)CC(=O)N3C1CC1

Structure (SMILES): CCOc1ccc2nc3cc(N)ccc3c(N)c2c1 [ETHACRIDINE LACTATE]
IC50 [25]: > 10 µM (inactive)
IC50 [26]: > 10 µM (inactive)

Source: ChEMBL document CHEMBL1201862, “PubChem BioAssay data set” (2004)
